Test results: the Kinase Knowledgebase extract (Sharma et al. 2016)

Assays:
Assay in all cases: Enzyme Assay
PIK3CG (human) = PIK3CG (human) (UniProt P48736)
PIK3CD (Human) = PIK3CD (Human) (UniProt O00329)
PIK3CB (Human) = PIK3CB (Human) (UniProt P42338)
PIK3CB (Human), sequence (P42338 whole entry, looked up): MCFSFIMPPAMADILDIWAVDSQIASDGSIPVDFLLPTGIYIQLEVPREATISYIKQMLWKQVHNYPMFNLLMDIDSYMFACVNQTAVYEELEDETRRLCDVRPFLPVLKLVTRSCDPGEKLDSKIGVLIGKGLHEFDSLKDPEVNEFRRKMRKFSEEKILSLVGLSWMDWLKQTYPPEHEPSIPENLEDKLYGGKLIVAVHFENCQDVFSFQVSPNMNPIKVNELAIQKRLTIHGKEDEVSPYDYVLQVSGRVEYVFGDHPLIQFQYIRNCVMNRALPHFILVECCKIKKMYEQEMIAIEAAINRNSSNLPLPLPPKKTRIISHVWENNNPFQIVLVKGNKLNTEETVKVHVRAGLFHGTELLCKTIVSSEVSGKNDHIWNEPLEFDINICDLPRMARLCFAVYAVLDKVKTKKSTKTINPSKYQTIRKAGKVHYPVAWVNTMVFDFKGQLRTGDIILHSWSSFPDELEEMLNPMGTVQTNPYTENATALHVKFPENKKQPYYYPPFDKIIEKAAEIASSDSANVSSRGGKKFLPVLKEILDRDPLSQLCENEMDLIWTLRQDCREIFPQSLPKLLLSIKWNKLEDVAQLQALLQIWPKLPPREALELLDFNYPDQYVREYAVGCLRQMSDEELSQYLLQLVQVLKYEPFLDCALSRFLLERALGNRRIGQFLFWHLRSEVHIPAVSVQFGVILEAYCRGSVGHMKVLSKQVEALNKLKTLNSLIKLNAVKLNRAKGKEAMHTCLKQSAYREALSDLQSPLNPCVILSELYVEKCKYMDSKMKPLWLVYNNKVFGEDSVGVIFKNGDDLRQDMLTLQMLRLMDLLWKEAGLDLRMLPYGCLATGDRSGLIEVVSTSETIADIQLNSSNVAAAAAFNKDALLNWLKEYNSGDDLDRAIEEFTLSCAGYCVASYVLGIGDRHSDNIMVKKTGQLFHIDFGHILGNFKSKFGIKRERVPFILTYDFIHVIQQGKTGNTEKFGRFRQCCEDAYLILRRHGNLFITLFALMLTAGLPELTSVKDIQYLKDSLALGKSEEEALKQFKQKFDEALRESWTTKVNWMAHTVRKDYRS

PIK3CG (human), sequence (P48736 whole entry, looked up): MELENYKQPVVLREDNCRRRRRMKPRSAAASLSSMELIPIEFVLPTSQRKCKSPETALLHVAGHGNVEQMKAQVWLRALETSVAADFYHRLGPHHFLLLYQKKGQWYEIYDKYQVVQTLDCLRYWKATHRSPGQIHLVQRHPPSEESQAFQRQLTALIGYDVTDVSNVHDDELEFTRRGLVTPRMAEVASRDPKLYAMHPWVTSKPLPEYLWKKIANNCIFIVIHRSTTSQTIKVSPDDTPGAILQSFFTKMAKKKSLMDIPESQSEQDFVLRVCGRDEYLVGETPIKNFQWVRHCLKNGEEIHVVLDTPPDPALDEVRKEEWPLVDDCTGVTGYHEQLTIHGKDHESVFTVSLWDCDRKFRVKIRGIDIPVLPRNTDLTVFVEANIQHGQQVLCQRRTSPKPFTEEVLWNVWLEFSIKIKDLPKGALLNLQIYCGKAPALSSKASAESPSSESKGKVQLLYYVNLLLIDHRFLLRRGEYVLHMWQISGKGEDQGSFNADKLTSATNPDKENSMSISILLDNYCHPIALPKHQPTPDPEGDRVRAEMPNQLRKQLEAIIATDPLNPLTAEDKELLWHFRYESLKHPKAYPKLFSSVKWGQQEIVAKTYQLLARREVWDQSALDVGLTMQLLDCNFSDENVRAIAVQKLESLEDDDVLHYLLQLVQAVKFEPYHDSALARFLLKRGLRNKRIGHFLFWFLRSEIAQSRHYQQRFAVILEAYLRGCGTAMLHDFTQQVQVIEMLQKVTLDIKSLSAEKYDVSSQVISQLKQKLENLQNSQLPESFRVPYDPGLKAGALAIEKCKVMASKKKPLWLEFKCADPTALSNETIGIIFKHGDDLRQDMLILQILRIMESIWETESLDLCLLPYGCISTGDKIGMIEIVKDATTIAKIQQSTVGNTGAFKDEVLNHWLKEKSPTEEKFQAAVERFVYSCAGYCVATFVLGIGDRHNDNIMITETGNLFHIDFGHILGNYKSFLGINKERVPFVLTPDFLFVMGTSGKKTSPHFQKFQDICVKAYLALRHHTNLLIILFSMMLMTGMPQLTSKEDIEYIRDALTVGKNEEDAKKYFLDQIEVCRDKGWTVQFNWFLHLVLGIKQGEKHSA
PIK3CD (Human), sequence (O00329 whole entry, looked up): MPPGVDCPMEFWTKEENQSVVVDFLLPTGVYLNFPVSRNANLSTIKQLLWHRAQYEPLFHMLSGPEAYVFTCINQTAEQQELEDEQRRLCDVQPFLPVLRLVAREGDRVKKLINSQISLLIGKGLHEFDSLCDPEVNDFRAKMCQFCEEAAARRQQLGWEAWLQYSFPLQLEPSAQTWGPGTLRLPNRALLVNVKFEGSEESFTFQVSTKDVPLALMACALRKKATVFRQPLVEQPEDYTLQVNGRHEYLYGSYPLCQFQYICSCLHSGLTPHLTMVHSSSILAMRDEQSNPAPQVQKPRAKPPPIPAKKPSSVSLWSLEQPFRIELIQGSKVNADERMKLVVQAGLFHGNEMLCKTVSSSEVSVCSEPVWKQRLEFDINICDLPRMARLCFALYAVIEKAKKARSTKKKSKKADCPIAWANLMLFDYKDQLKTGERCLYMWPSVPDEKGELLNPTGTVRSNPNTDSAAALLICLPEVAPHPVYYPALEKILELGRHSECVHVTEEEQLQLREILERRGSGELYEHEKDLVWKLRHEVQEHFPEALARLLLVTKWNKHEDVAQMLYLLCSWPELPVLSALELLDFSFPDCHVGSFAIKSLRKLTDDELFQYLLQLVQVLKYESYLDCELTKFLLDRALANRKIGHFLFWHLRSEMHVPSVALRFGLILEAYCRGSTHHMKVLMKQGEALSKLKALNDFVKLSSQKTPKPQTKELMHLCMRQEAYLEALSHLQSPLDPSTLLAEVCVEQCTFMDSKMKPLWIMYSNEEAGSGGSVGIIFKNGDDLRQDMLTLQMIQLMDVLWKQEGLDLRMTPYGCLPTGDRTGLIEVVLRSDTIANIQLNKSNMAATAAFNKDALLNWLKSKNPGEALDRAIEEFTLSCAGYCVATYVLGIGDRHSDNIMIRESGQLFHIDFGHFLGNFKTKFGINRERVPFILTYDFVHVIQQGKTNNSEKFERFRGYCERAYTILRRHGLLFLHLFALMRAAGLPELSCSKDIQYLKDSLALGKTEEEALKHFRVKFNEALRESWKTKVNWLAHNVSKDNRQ

| SMILES | IC50 (PIK3CG (human)) [µM] | IC50 (PIK3CD (Human)) [µM] | IC50 (PIK3CB (Human)) [µM] |
| --- | --- | --- | --- |
| Nc1cnc(-n2c([C@@H](Nc3nc(N)nc(N)c3Cl)C3CC3)nc3c(Cl)ccc(Cl)c3c2=O)cn1 | > 10 |  |  |
| Nc1cnc(-n2c([C@@H](Nc3ncnc(N)c3Cl)C3CC3)nc3cccc(Cl)c3c2=O)cn1 | > 10 |  | 0.72 |
| C[C@H](Nc1ncnc(N)c1Cl)c1nc2cccc(Cl)c2c(=O)n1-c1cnc(N)cn1 | > 10 | 0.054 | 0.36 |
| Nc1cnc(-n2c([C@@H](Nc3nc(N)nc(N)c3Cl)C3CC3)nc3cccc(Cl)c3c2=O)cn1 | > 10 |  |  |
| C[C@H](Nc1ncnc2[nH]nnc12)c1nc2c(F)cccc2c(=O)n1-c1cnc(N)cn1 | > 10 |  | > 10 |
| C[C@H](Nc1nc(N)nc(N)c1Cl)c1nc2c(Cl)cc(F)cc2c(=O)n1-c1cnc(N)cn1 | > 10 | 0.5 | 0.57 |
| C[C@H](Nc1nc(N)nc(N)c1Cl)c1nc2c(F)cc(F)cc2c(=O)n1-c1cnc(N)cn1 | > 10 | 0.78 | 0.53 |
| C[C@H](Nc1nc(N)nc(C(F)F)c1C#N)c1nc2c(Cl)cc(F)cc2c(=O)n1-c1cnc(N)cn1 | > 10 | 0.34 | 0.2 |

The next lines start with the values.

| IC50 (PIK3CG (human)) [µM] | IC50 (PIK3CD (Human)) [µM] | IC50 (PIK3CB (Human)) [µM] | SMILES |
| --- | --- | --- | --- |
| > 10 |  |  | C[C@H](Nc1nc(N)nc(N)c1Cl)c1nc2c(Cl)ccc(Cl)c2c(=O)n1-c1cnc(N)cn1 |
| > 10 | 0.026 | 1.1 | Nc1cnc(-n2c([C@@H](Nc3ncnc(N)c3Cl)C3CC3)nc3c(Cl)ccc(Cl)c3c2=O)cn1 |
| > 10 |  |  | C[C@H](Nc1ncnc2occc12)c1nc2c(F)ccc(Cl)c2c(=O)n1-c1cnc(N)cn1 |
| > 10 |  |  | C[C@H](Nc1nc(N)nc(N)c1Cl)c1nc2c(F)ccc(Cl)c2c(=O)n1-c1cnc(N)cn1 |
| > 10 |  |  | C[C@H](Nc1ncnc(N)c1C#N)c1nc2c(F)ccc(Cl)c2c(=O)n1-c1cnc(N)cn1 |
